In paper PMC6208650:

Test: on-resin lactamisation, Asp side-chain COOH (C-terminal residue, anchored via Rink amide) + alpha-NH2 of N-terminal Dap(Boc); HATU/DIEA 1.05:2.1 equiv, overnight; then TFA cleavage
Settings: NMP, 57.0 mM; for ring closure, product found: scale: 1 = cyclic product is largest ESI-MS signal, 0 = linear; for ring closure, conversion by HPLC: scale: % crude HPLC purity, 320 nm area of tallest peak or peak cluster
[1] = from CC(C)(C)OC(=O)NC[C@H](N)C(=O)NCC(=O)NCC(=O)N[C@@H](CNC(=O)c1cnc2ccccc2n1)C(=O)NCC(=O)NCC(=O)N[C@@H](CC(=O)O)C(N)=O, 22-membered ring
[2] = from CC(C)(C)OC(=O)NC[C@H](N)C(=O)N[C@@H](CNC(=O)c1cnc2ccccc2n1)C(=O)NCC(=O)NCC(=O)NCC(=O)N[C@@H](CNC(=O)c1cnc2ccccc2n1)C(=O)N[C@@H](CC(=O)O)C(N)=O, 22-membered ring
[3] = from CC(C)(C)OC(=O)NC[C@H](N)C(=O)N[C@@H](CNC(=O)c1cnc2ccccc2n1)C(=O)NCC(=O)N[C@@H](CNC(=O)c1cnc2ccccc2n1)C(=O)NCC(=O)N[C@@H](CNC(=O)c1cnc2ccccc2n1)C(=O)N[C@@H](CC(=O)O)C(N)=O, 22-membered ring
[4] = from CC(C)(C)OC(=O)NC[C@H](N)C(=O)NCC(=O)NCC(=O)NCC(=O)N[C@@H](CNC(=O)c1cnc2ccccc2n1)C(=O)N[C@@H](CNC(=O)c1cnc2ccccc2n1)C(=O)N[C@@H](CC(=O)O)C(N)=O, 22-membered ring
[5] = from CC(C)(C)OC(=O)NC[C@H](N)C(=O)NCC(=O)N[C@@H](CNC(=O)c1cnc2ccccc2n1)C(=O)N[C@@H](CNC(=O)c1cnc2ccccc2n1)C(=O)NCC(=O)NCC(=O)N[C@@H](CC(=O)O)C(N)=O, 22-membered ring
[6] = from CC(C)(C)OC(=O)NC[C@H](N)C(=O)N[C@@H](CNC(=O)c1cnc2ccccc2n1)C(=O)N[C@@H](CNC(=O)c1cnc2ccccc2n1)C(=O)NCC(=O)NCC(=O)NCC(=O)N[C@@H](CC(=O)O)C(N)=O, 22-membered ring
[7] = from CC(C)(C)OC(=O)NC[C@H](N)C(=O)N[C@@H](CNC(=O)c1cnc2ccccc2n1)C(=O)NCC(=O)N[C@@H](CNC(=O)c1cnc2ccccc2n1)C(=O)N[C@@H](CNC(=O)c1cnc2ccccc2n1)C(=O)NCC(=O)N[C@@H](CC(=O)O)C(N)=O, 22-membered ring
[8] = from CC(C)(C)OC(=O)NC[C@H](N)C(=O)NCC(=O)N[C@@H](CNC(=O)c1cnc2ccccc2n1)C(=O)NCC(=O)N[C@@H](CNC(=O)c1cnc2ccccc2n1)C(=O)NCC(=O)N[C@@H](CC(=O)O)C(N)=O, 22-membered ring
[9] = from CC(C)(C)OC(=O)NC[C@H](N)C(=O)NCC(=O)N[C@@H](CNC(=O)c1cnc2ccccc2n1)C(=O)NCC(=O)N[C@@H](CNC(=O)c1cnc2ccccc2n1)C(=O)N[C@@H](CNC(=O)c1cnc2ccccc2n1)C(=O)N[C@@H](CC(=O)O)C(N)=O, 22-membered ring
[10] = from CC(C)(C)OC(=O)NC[C@H](N)C(=O)NCC(=O)NCC(=O)N[C@@H](CNC(=O)c1cnc2ccccc2n1)C(=O)N[C@@H](CNC(=O)c1cnc2ccccc2n1)C(=O)NCC(=O)N[C@@H](CC(=O)O)C(N)=O, 22-membered ring

Q: For `NC[C@@H]1NC(=O)C[C@@H](C(N)=O)NC(=O)CNC(=O)CNC(=O)[C@H](CNC(=O)c2cnc3ccccc3n2)NC(=O)CNC(=O)CNC1=O` [H-Dap(Boc)-Gly-Gly-Dap(Qxc)-Gly-Gly-Asp(OH)-NH-Rink resin], which ring closure, product found [1] is on record?
A: 1

Q: What about the ring closure, conversion by HPLC [1] of the same molecule?
A: 84

Q: For `NC[C@@H]1NC(=O)C[C@@H](C(N)=O)NC(=O)[C@H](CNC(=O)c2cnc3ccccc3n2)NC(=O)CNC(=O)CNC(=O)CNC(=O)[C@H](CNC(=O)c2cnc3ccccc3n2)NC1=O`, which ring closure, product found [2] is on record?
A: 1

Q: And the ring closure, conversion by HPLC [2]?
A: 64

Q: Which ring closure, product found [3] does the source give for `NC[C@@H]1NC(=O)C[C@@H](C(N)=O)NC(=O)[C@H](CNC(=O)c2cnc3ccccc3n2)NC(=O)CNC(=O)[C@H](CNC(=O)c2cnc3ccccc3n2)NC(=O)CNC(=O)[C@H](CNC(=O)c2cnc3ccccc3n2)NC1=O` here?
A: 1

Q: And the ring closure, conversion by HPLC [3]?
A: 24

Q: Which results are given for `NC[C@@H]1NC(=O)C[C@@H](C(N)=O)NC(=O)[C@H](CNC(=O)c2cnc3ccccc3n2)NC(=O)[C@H](CNC(=O)c2cnc3ccccc3n2)NC(=O)CNC(=O)CNC(=O)CNC1=O`?
A: ring closure, product found [4]: 1; ring closure, conversion by HPLC [4]: 75

Q: For `NC[C@@H]1NC(=O)C[C@@H](C(N)=O)NC(=O)CNC(=O)CNC(=O)[C@H](CNC(=O)c2cnc3ccccc3n2)NC(=O)[C@H](CNC(=O)c2cnc3ccccc3n2)NC(=O)CNC1=O`, which ring closure, product found [5] is on record?
A: 1

Q: And the ring closure, conversion by HPLC [5]?
A: 69

Q: Which ring closure, product found [6] does the source give for `NC[C@@H]1NC(=O)C[C@@H](C(N)=O)NC(=O)CNC(=O)CNC(=O)CNC(=O)[C@H](CNC(=O)c2cnc3ccccc3n2)NC(=O)[C@H](CNC(=O)c2cnc3ccccc3n2)NC1=O` here?
A: 1

Q: And the ring closure, conversion by HPLC [6]?
A: 35

Q: Which ring closure, product found [7] does the source give for `NC[C@@H]1NC(=O)C[C@@H](C(N)=O)NC(=O)CNC(=O)[C@H](CNC(=O)c2cnc3ccccc3n2)NC(=O)[C@H](CNC(=O)c2cnc3ccccc3n2)NC(=O)CNC(=O)[C@H](CNC(=O)c2cnc3ccccc3n2)NC1=O` here?
A: 1

Q: What about the ring closure, conversion by HPLC [7] of the same molecule?
A: 81

Q: What does the source list for `NC[C@@H]1NC(=O)C[C@@H](C(N)=O)NC(=O)CNC(=O)[C@H](CNC(=O)c2cnc3ccccc3n2)NC(=O)CNC(=O)[C@H](CNC(=O)c2cnc3ccccc3n2)NC(=O)CNC1=O`?
A: ring closure, product found [8]: 1; ring closure, conversion by HPLC [8]: 79

Q: With `NC[C@@H]1NC(=O)C[C@@H](C(N)=O)NC(=O)CNC(=O)[C@H](CNC(=O)c2cnc3ccccc3n2)NC(=O)CNC(=O)[C@H](CNC(=O)c2cnc3ccccc3n2)NC1=O` [H-Dap(Boc)-Dap(Qxc)-Gly-Dap(Qxc)-Gly-Asp(OH)-NH-Rink resin] as the molecule, how does the ring closure, product found (from CC(C)(C)OC(=O)NC[C@H](N)C(=O)N[C@@H](CNC(=O)c1cnc2ccccc2n1)C(=O)NCC(=O)N[C@@H](CNC(=O)c1cnc2ccccc2n1)C(=O)NCC(=O)N[C@@H](CC(=O)O)C(N)=O, 19-membered ring) read?
A: 1

Q: What does the source list for `NC[C@@H]1NC(=O)C[C@@H](C(N)=O)NC(=O)[C@H](CNC(=O)c2cnc3ccccc3n2)NC(=O)[C@H](CNC(=O)c2cnc3ccccc3n2)NC(=O)CNC(=O)[C@H](CNC(=O)c2cnc3ccccc3n2)NC(=O)CNC1=O`?
A: ring closure, product found [9]: 0; ring closure, conversion by HPLC [9]: < 39

Q: For `NC[C@@H]1NC(=O)C[C@@H](C(N)=O)NC(=O)CNC(=O)[C@H](CNC(=O)c2cnc3ccccc3n2)NC(=O)[C@H](CNC(=O)c2cnc3ccccc3n2)NC(=O)CNC(=O)CNC1=O`, which ring closure, product found [10] is on record?
A: 1

Q: What about the ring closure, conversion by HPLC [10] of the same molecule?
A: 60
